Experimental data as given in patent publication US12577250B2, “1,2,4-triazolone derivative as DHODH inhibitor, and preparation method therefor and use thereof” (WIGEN BIOMEDICINE TECHNOLOGY (SHANGHAI) CO., LTD., priority 2021, dated 2026).
Where two headings read alike, the source gives them in different places.

Columns and labels:
MV-4-11 cells = experiment: Anti-proliferative activity on MV-4-11 cells (CellTiter-Lumi, 72 h); assay type: cell-based; conditions: read-out: Cell anti-proliferative activity IC50 MV-4-11
Procedure: (§1) MV-4-11 cells were seeded into a 384-well plate (Fisher 142762) at 3000 cells per well. The next day, serially diluted compounds were added, and 72 h after the addition, CellTiter-Lumi (Beyotime C0068XL) was added to measure the ATP content in the cells. The growth of the cells was evaluated, and IC50 of the compounds against cell growth was calculated.

DHODH = DHODH (Homo sapiens, UniProt Q02127); experiment: Assay against enzyme activity of DHODH (DCIP absorption at 600 nm); assay type: biochemical
Procedure: The enzyme activity of DHODH was assayed through a cascade reaction to determine its ability to catalyze the oxidation of a natural substrate DHO (dihydroorotic acid) to orotic acid while reducing coenzyme Q. The enzyme activity of DHODH was indirectly detected by assaying the ability of the coenzyme Q to reduce a chromogenic substrate DCIP. After the compound and an enzyme reaction mixture were incubated for 5 min, a reaction substrate DHO was added to start the reaction, and the enzyme activity was assayed by assaying the absorption at 600 nm to detect the DCIP exhaustion in a timed manner.

THP-1 cells = experiment: Anti-proliferative activity on THP-1 cells (CellTiter-Lumi, 72 h); assay type: cell-based; conditions: read-out: Cell anti-proliferative activity IC50 THP-1
Procedure: as §1, with “THP-1” for “MV-4-11”

[1] = Pharmacokinetic evaluation in mice; assay type: in vivo, male ICR mice
Procedure: The compounds were administered by intravenous injection at a dose of 2 mg/kg and oral gavage at a dose of 10 mg/kg (0.5% CMC-Na suspension). 15 male ICR mice were selected, and each mouse was subjected to blood collection at 3 discrete time points, with 3 mice per time point. The time points of sampling were as follows: before administration, and 5 min, 15 min, 30 min, 1 h, 3 h, 5 h, 8 h, 12 h and 24 h after administration. 80 μL of blood was collected from the orbits or hearts of the mice at each time point after administration. All whole blood samples were collected in tubes containing EDTAK2 and centrifuged (1500-1600 rmp/min) at 4° C. for 10 min to isolate plasma, which was then stored in a refrigerator at −90° C. to −60° C. for sample analysis. The compound concentration in the plasma was determined by liquid chromatography-tandem mass spectrometry, and the corresponding pharmacokinetic parameters were obtained according to a plasma concentration-time curve.

[2] = male, ICR, mouse, plasma, iv, 2 mg/kg
[3] = male, ICR, mouse, plasma, po, 10 mg/kg (0.5% CMC-Na suspension)

Chain of DHODH (Q02127 whole entry): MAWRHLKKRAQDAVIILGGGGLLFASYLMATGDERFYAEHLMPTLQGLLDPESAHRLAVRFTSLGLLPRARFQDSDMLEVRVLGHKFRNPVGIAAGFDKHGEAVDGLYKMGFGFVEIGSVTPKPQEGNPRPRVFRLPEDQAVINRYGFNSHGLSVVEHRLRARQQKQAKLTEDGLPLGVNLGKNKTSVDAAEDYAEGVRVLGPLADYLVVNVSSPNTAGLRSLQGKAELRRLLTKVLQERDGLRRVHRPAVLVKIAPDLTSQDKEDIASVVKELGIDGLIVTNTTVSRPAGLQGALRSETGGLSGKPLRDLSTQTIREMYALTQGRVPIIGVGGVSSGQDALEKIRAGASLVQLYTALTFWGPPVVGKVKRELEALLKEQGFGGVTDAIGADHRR

| Molecule | IC50 (MV-4-11 cells; Homo sapiens, MV4-11, 72 h) | IC50 (DHODH) | IC50 (THP-1 cells; Homo sapiens) | also measured |
| --- | --- | --- | --- | --- |
| C[C@H](Oc1cc(-n2nc3n(c2=O)CCCC2(CC2)C3)c(F)cc1C(=O)Nc1c(F)cccc1Cl)C(F)(F)F [Compound 51] | 5.45 nM | < 50 nM | 47.6 nM | – |
| C[C@H](Oc1cc(-n2nc3n(c2=O)CCC2(CC2)C3)c(F)cc1C(=O)Nc1c(F)cccc1Cl)C(F)(F)F [Compound 1, (S)—N-(2-chloro-6-fluorophenyl)-5-fluoro-4-(3′-oxo-5′,6′-dihydro-3′H-spiro[cyclopropane-1,7-[1,2,4]triazolo[4,3-α]pyridin]-2′(8′H)-yl)-2-((1,1,1-trifluoropropan-2-yl)oxy)benzamide] | 1.27 nM | < 50 nM | 27.6 nM | AUC(0-t) [1, 2]: 2530 ng·h/mL; clearance [1, 2]: 13.2 mL/min/kg; half-life [1, 2]: 1.79 h; Vd ([1]; male, ICR, mouse, plasma, iv, 2 mg/kg, read-out: Vss): 1.66 L/kg; AUC(0-t) [1, 3]: 7780 ng·h/mL; Cmax [1, 3]: 2240 ng/mL; Tmax [1, 3]: 0.25 h; half-life [1, 3]: 2.07 h; oral bioavailability (in words) ([1]; po): good oral bioavailability; F ([1]; po 10 mg/kg vs iv 2 mg/kg): 61.7% |
| BAY-2402234 [reference compound] | – | – | – | IC50 (MV-4-11 cells): 3.82 nM; IC50 (THP-1 cells): 35.6 nM |
| C[C@H](Oc1nc(-n2nc3n(c2=O)CCC2(CC2)C3)c(F)cc1C(=O)Nc1c(F)cccc1Cl)C(F)(F)F [Compound 54, (S)—N-(2-chloro-6-fluorophenyl)-5-fluoro-4-(3′-oxo-5′,6′-dihydro-3′H-spiro[cyclopropane-1,7-[1,2,4]triazolo[4,3-α]pyridin]-2′(8′H)-yl)-2-((1,1,1-trifluoropropan-2-yl)oxy)benzamide] | 0.51 nM | < 50 nM | 24.5 nM | – |
| CCC[C@H](C)Oc1nc(-n2nc3n(c2=O)CCC2(CC2)C3)c(F)cc1C(=O)Nc1c(F)cccc1Cl [Compound 56] | 1.97 nM | < 50 nM | – | – |
| CC(C)[C@H](C)Oc1cc(-n2nc3n(c2=O)CCC2(CC2)C3)c(F)cc1C(=O)Nc1c(F)cccc1Cl [Compound 43] | – | < 50 nM | – | IC50 (MV-4-11 cells; Homo sapiens, MV4-11, 72 h, class symbols): ≤ 50 nM |
| Cc1n[nH]c(Cl)c1NC(=O)c1cc(F)c(-n2nc3n(c2=O)CCC2(CC2)C3)cc1O[C@@H](C)C(F)(F)F [Compound 39] | 65.8 nM | < 50 nM | – | – |
